Data published in paper PMC11637875, “Discovery of novel PARP1/NRP1 dual-targeting inhibitors with strong antitumor potency” (Frontiers in Pharmacology, 2024).

Legend:
Assay type in all cases: biochemical
FLT3 = FLT3 (Homo sapiens, UniProt P36888); experiment: Selectivity profile (123 kinase panel)
CLK1 = CLK1 (Homo sapiens, UniProt P49759); experiment: Selectivity profile (123 kinase panel)
ALK = ALK (Homo sapiens, UniProt Q9UM73); experiment: Selectivity profile (123 kinase panel)
LCK = LCK (Homo sapiens, UniProt P06239); experiment: Selectivity profile (123 kinase panel)
GLK = GLK (Homo sapiens, UniProt Q8IVH8); experiment: Selectivity profile (123 kinase panel)
GLK, sequence (Q8IVH8 whole entry): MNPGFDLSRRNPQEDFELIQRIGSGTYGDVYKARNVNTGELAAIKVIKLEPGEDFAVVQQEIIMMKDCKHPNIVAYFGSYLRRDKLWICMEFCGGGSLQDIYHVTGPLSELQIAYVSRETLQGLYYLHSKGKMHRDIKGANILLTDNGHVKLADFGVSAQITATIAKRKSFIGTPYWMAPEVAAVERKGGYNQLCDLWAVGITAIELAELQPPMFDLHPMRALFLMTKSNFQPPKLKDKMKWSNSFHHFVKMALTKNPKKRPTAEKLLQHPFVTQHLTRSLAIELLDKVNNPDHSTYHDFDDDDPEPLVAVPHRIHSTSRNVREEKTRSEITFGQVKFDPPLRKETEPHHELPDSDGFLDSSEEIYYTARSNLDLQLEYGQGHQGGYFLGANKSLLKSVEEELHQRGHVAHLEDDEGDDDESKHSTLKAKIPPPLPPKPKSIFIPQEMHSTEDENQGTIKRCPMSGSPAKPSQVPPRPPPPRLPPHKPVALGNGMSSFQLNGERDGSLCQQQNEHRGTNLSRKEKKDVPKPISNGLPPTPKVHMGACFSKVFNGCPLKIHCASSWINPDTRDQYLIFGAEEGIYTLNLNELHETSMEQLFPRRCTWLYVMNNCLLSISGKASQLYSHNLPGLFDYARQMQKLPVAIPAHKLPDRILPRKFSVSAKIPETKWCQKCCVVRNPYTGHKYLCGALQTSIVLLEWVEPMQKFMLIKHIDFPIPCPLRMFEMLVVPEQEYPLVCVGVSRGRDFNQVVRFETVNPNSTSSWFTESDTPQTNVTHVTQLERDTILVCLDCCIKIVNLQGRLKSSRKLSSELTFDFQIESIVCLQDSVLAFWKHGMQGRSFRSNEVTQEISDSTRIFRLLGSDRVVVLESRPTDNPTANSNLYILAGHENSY

DNA-PK = DNA-PK (Homo sapiens, UniProt P78527); experiment: Selectivity profile (123 kinase panel)
ABL2 = ABL2 (Homo sapiens, UniProt P42684); experiment: Selectivity profile (123 kinase panel)
EPHB2 = EPHB2 (Homo sapiens, UniProt P29323); experiment: Selectivity profile (123 kinase panel)
EPHB2, sequence (P29323 19-1055, species assumed): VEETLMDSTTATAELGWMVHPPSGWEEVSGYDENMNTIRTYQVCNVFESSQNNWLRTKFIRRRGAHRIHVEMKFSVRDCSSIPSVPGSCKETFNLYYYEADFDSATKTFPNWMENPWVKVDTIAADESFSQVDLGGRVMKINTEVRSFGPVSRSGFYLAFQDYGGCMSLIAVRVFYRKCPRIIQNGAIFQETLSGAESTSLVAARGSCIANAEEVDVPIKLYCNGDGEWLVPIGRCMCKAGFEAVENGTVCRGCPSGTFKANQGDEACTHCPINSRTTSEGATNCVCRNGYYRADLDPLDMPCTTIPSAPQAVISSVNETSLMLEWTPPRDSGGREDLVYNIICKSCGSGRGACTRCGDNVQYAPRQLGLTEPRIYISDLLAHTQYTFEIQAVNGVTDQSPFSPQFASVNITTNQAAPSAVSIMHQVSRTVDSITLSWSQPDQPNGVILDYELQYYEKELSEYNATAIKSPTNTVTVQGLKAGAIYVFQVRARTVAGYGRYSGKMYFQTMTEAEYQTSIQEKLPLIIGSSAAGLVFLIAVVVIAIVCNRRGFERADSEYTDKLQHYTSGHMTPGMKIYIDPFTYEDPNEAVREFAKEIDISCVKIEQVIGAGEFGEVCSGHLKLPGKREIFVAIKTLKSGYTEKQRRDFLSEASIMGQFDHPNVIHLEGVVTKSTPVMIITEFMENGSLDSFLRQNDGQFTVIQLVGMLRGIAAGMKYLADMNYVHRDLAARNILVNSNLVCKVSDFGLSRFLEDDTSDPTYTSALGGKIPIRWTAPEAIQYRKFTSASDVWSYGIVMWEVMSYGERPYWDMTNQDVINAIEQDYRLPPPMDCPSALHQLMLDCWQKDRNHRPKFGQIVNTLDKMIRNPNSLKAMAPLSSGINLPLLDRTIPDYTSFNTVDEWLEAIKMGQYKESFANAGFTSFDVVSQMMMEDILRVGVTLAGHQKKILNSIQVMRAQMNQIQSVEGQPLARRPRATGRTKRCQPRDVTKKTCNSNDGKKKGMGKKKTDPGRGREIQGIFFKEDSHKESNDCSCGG

FGR = FGR (Homo sapiens, UniProt P09769); experiment: Selectivity profile (123 kinase panel)
Erk5 = Erk5 (Homo sapiens, UniProt Q13164); experiment: Selectivity profile (123 kinase panel)
HIPK1 = HIPK1 (Homo sapiens, UniProt Q86Z02); experiment: Selectivity profile (123 kinase panel)
MINK = MINK (Homo sapiens, UniProt Q8N4C8); experiment: Selectivity profile (123 kinase panel)
MINK, sequence (Q8N4C8 whole entry): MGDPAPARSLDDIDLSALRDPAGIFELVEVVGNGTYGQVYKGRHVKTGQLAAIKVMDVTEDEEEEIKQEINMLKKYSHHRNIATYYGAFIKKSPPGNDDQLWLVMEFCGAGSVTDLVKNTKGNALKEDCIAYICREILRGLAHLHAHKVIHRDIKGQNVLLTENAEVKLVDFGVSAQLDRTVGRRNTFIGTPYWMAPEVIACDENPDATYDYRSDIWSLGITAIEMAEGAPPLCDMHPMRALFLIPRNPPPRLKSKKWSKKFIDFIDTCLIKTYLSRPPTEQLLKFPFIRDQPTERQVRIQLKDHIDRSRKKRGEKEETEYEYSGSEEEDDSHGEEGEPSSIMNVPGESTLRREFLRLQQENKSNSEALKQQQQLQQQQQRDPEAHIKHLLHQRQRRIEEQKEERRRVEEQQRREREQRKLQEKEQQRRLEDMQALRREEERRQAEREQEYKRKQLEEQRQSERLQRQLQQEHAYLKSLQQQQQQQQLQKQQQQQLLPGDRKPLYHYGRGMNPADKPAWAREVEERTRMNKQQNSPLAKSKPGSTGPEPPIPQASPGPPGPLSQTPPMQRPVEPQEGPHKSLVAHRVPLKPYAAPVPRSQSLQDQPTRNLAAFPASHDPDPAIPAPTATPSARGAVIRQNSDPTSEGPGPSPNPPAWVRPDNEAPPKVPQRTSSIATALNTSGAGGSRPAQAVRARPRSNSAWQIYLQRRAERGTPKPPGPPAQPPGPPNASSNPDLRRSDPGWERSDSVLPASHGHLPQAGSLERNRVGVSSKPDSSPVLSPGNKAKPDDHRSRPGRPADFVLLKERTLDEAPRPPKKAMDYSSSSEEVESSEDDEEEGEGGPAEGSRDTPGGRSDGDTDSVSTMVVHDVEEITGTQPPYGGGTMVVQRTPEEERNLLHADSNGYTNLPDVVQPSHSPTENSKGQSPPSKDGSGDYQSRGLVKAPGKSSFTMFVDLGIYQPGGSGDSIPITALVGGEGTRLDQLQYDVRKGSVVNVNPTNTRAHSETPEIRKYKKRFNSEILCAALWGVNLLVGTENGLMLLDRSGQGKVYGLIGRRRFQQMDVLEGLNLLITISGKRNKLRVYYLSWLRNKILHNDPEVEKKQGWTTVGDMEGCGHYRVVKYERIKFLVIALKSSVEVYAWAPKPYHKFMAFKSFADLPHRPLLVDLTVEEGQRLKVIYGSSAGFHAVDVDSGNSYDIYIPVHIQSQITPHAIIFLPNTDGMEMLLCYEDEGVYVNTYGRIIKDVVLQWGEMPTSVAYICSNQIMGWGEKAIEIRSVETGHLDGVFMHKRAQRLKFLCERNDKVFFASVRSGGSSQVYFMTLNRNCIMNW

CHK2 = CHK2 (Homo sapiens, UniProt O96017); experiment: Selectivity profile (123 kinase panel)
IGF1R = IGF1R (Homo sapiens, UniProt P08069); experiment: Selectivity profile (123 kinase panel)
EPHA3 = EPHA3 (Homo sapiens, UniProt P29320); experiment: Selectivity profile (123 kinase panel)
PARP1 = biological target: T1, PARP1 (Homo sapiens, UniProt P09874); experiment: In vitro PARP1 inhibition assay (chemiluminescence); settings: PARP1 enzyme 0.6 units/well
T1 construct: purchased Abcam
Procedure: In each well, 50 μL of 1 × PARP1 buffer was added and incubated for 30 min at room temperature. The 1 × PARP1 buffer was removed from the wells, and then 25 μL of 1 × PARP1 cocktail was added to each well along with varying doses of compounds and PARP1 enzyme (0.6 units/well). Incubated and washed twice with PBS and 0.1% Triton X-100. Then added 50 μL Strep-HRP and washed twice. Equal volumes (100 μL) of PeroxyGlow A and B were added to each well and immediately take chemiluminescent readings. Data were analyzed by GraphPad Prism 9 software based on chemiluminescence readings of chemiluminescent substrates of Strep-HRP in each well. The IC50 value was were calculated by nonlinear curve fitting in GraphPad Prism 9.

CK1δ = CK1δ (Homo sapiens, UniProt P48730); experiment: Selectivity profile (123 kinase panel)
HIPK4 = HIPK4 (Homo sapiens, UniProt Q8NE63); experiment: Selectivity profile (123 kinase panel)
HIPK4, sequence (Q8NE63 whole entry, canonical isoform): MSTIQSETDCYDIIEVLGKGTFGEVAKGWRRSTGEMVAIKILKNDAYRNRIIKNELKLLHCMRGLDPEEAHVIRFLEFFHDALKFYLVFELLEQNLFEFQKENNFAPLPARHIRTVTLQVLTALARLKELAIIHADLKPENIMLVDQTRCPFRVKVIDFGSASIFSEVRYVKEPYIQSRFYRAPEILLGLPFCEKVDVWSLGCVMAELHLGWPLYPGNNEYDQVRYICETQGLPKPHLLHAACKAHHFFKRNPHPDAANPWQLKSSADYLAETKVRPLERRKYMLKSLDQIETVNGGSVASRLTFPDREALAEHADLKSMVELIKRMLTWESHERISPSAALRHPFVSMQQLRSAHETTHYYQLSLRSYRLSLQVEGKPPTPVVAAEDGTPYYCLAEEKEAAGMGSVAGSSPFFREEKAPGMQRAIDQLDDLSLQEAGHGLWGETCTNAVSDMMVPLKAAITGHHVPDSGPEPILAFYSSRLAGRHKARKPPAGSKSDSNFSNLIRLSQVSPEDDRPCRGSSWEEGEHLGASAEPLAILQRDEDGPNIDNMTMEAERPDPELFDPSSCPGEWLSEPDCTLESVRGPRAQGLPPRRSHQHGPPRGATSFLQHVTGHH

PARP15 = PARP15 (Homo sapiens, UniProt Q460N3); experiment: Selectivity profile (other isoforms of PARP and NRP family)
EPHB1 = EPHB1 (Homo sapiens, UniProt P54762); experiment: Selectivity profile (123 kinase panel)
ABL1 = ABL1 (Homo sapiens, UniProt P00519); experiment: Selectivity profile (123 kinase panel)
AKT1 = AKT1 (Homo sapiens, UniProt P31749); experiment: Selectivity profile (123 kinase panel)
EPHA8 = EPHA8 (Homo sapiens, UniProt P29322); experiment: Selectivity profile (123 kinase panel)
GSK3β = GSK3β (Homo sapiens, UniProt P49841); experiment: Selectivity profile (123 kinase panel)
GSK3β, sequence (P49841 whole entry, canonical isoform): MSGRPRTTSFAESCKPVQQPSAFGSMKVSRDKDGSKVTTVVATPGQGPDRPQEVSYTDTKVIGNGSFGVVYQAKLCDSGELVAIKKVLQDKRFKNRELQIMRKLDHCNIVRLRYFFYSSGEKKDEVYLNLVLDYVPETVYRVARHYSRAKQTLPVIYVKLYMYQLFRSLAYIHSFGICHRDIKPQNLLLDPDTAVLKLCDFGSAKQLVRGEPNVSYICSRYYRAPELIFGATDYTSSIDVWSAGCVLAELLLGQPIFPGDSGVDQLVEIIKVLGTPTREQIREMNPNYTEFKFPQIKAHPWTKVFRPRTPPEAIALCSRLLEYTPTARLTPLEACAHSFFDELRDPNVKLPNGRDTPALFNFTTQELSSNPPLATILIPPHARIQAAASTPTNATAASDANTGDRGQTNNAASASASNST

PARP13 = PARP13 (Homo sapiens, UniProt Q7Z2W4); experiment: Selectivity profile (other isoforms of PARP and NRP family)
ACK = ACK (Homo sapiens, UniProt Q07912); experiment: Selectivity profile (123 kinase panel)
PARP10 = PARP10 (Homo sapiens, UniProt Q53GL7); experiment: Selectivity profile (other isoforms of PARP and NRP family)
NEK9 = NEK9 (Homo sapiens, UniProt Q8TD19); experiment: Selectivity profile (123 kinase panel)
JAK2 = JAK2 (Homo sapiens, UniProt O60674); experiment: Selectivity profile (123 kinase panel)
JAK3 = JAK3 (Homo sapiens, UniProt P52333); experiment: Selectivity profile (123 kinase panel)
DYRK3 = DYRK3 (Homo sapiens, UniProt O43781); experiment: Selectivity profile (123 kinase panel)
DYRK3, sequence (O43781 whole entry): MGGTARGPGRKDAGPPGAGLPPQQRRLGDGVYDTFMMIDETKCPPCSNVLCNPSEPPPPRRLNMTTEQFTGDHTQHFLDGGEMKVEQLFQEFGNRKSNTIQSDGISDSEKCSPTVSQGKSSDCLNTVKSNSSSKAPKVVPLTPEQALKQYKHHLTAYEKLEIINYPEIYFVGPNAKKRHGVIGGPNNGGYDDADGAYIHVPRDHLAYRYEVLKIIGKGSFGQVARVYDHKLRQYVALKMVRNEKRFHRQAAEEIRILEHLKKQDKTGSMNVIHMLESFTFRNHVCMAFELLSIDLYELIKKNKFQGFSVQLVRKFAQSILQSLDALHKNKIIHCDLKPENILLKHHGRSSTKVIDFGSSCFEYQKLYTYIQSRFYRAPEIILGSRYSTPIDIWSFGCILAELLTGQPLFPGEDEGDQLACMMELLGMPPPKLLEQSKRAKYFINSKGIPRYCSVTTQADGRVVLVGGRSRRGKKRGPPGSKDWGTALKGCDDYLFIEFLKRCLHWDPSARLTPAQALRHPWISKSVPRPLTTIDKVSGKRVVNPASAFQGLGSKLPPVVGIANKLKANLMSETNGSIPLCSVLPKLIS

FGFR4 = FGFR4 (Homo sapiens, UniProt P22455); experiment: Selectivity profile (123 kinase panel)
DYRK1A = DYRK1A (Homo sapiens, UniProt Q13627); experiment: Selectivity profile (123 kinase panel)
PARP12 = PARP12 (Homo sapiens, UniProt Q9H0J9); experiment: Selectivity profile (other isoforms of PARP and NRP family)
Erk7 = Erk7 (Homo sapiens, UniProt Q8TD08); experiment: Selectivity profile (123 kinase panel)
CSK = CSK (Homo sapiens, UniProt P41240); experiment: Selectivity profile (123 kinase panel)
CK1ε = CK1ε (Homo sapiens, UniProt P49674); experiment: Selectivity profile (123 kinase panel)
CK1γ1 = CK1γ1 (Homo sapiens, UniProt Q9HCP0); experiment: Selectivity profile (123 kinase panel)
HIPK2 = HIPK2 (Homo sapiens, UniProt Q9H2X6); experiment: Selectivity profile (123 kinase panel)
JNK2 = JNK2 (Homo sapiens, UniProt P45984); experiment: Selectivity profile (123 kinase panel)

IC50 (FLT3): > 10 µM
IC50 (CLK1): > 10 µM
IC50 (ALK): > 10 µM
IC50 (LCK): > 10 µM
IC50 (GLK): > 10 µM
IC50 (DNA-PK): > 10 µM
IC50 (ABL2): > 10 µM
IC50 (EPHB2): > 10 µM
IC50 (FGR): > 10 µM
IC50 (Erk5): > 10 µM
IC50 (HIPK1): > 10 µM
IC50 (MINK): > 10 µM
IC50 (CHK2): > 10 µM
IC50 (IGF1R): > 10 µM
IC50 (EPHA3): > 10 µM
IC50 (PARP1): 0.00771 ± 0.00039 µM
IC50 (CK1δ): > 10 µM
IC50 (HIPK4): > 10 µM
IC50 (PARP15): > 10 µM
IC50 (EPHB1): > 10 µM
IC50 (ABL1): > 10 µM
IC50 (AKT1): > 10 µM
IC50 (EPHA8): > 10 µM
IC50 (GSK3β): > 10 µM
IC50 (PARP13): > 10 µM
IC50 (ACK): > 10 µM
IC50 (PARP10): > 10 µM
IC50 (JAK2): > 10 µM
IC50 (JAK3): > 10 µM
IC50 (DYRK3): > 10 µM
IC50 (FGFR4): > 10 µM
IC50 (DYRK1A): > 10 µM
IC50 (PARP12): > 10 µM
IC50 (CSK): > 10 µM
IC50 (CK1ε): > 10 µM
IC50 (CK1γ1): > 10 µM
IC50 (HIPK2): > 10 µM
IC50 (JNK2): > 10 µM
Compound: NC(N)=NCCC[C@H](NCN1CCN(C(=O)c2cc(Cc3n[nH]c(=O)c4ccccc34)ccc2F)CC1)C(=O)O [PPNR-4]
IC50 (NEK9): > 10 µM
IC50 (Erk7): > 10 µM
